Data as given in ChEMBL document CHEMBL5500384, “New synergistic benzoquinone scaffolds as inhibitors of mycobacterial cytochrome bc1 complex to treat multi-drug resistant tuberculosis” (Eur J Med Chem, 2024).
≈ marks a conversion by molar mass, not a printed value.

Legend:
[1] = system: Mycobacterium tuberculosis; test: Antitubercular activity against Mycobacterium tuberculosis H37Rv incubated for 5 days by microtiter plate method; type: functional; conditions: 120 h, time 5 day
[2] = system: Mycolicibacterium smegmatis; test: Antibacterial activity against Mycobacterium smegmatis ATCC 14468 assessed as reduction in bacterial growth at 12 ug/ml incubated for 48 hrs by spectrometry analysis; type: functional; set-up: scale not given: the % may be the effect or the level left; conditions: dose 12 µg/ml
[3] = system: Mycolicibacterium smegmatis; test: Antibacterial activity against Mycobacterium smegmatis ATCC 14468 assessed as log2 fold change in NADH-quinone oxidoreductase subunit C expression at 3 ug/ml incubated for 12 hrs by mass spectrometric analysis; type: functional; conditions: dose 3 µg/ml
[4] = system: Mycolicibacterium smegmatis; test: Antibacterial activity against Mycobacterium smegmatis ATCC 14468 assessed as log2 fold change in transposase expression at 3 ug/ml incubated for 12 hrs by mass spectrometric analysis; type: functional; conditions: dose 3 µg/ml
[5] = system: Mycolicibacterium smegmatis; test: Antibacterial activity against Mycobacterium smegmatis ATCC 14468 assessed as log2 fold change in dihydroorotate dehydrogenase expression at 3 ug/ml incubated for 12 hrs by mass spectrometric analysis; type: functional; conditions: dose 3 µg/ml
[6] = system: Mycolicibacterium smegmatis; test: Antibacterial activity against Mycobacterium smegmatis ATCC 14468 assessed as log2 fold change in citrate transporter expression at 3 ug/ml incubated for 12 hrs by mass spectrometric analysis; type: functional; conditions: dose 3 µg/ml
[7] = system: Mycolicibacterium smegmatis; test: Antibacterial activity against Mycobacterium smegmatis ATCC 14468 assessed as log2 fold change in MscS expression at 3 ug/ml incubated for 12 hrs by mass spectrometric analysis; type: functional; conditions: dose 3 µg/ml
[8] = system: Mycolicibacterium smegmatis; test: Antibacterial activity against Mycobacterium smegmatis ATCC 14468 assessed as log2 fold change in signal transduction histidine kinase expression at 3 ug/ml incubated for 12 hrs by mass spectrometric analysis; type: functional; conditions: dose 3 µg/ml
[9] = system: Mycolicibacterium smegmatis; test: Antibacterial activity against Mycobacterium smegmatis ATCC 14468 assessed as log2 fold change in histidine kinase expression at 3 ug/ml incubated for 12 hrs by mass spectrometric analysis; type: functional; conditions: dose 3 µg/ml
[10] = system: Mycolicibacterium smegmatis; test: Antibacterial activity against Mycobacterium smegmatis ATCC 14468 assessed as log2 fold change in DppB expression at 3 ug/ml incubated for 12 hrs by mass spectrometric analysis; type: functional; conditions: dose 3 µg/ml
[11] = system: Mycolicibacterium smegmatis; test: Antibacterial activity against Mycobacterium smegmatis ATCC 14468 assessed as log2 fold change in PknH_C domain-containing protein expression at 3 ug/ml incubated for 12 hrs by mass spectrometric analysis; type: functional; conditions: dose 3 µg/ml
[12] = Cytotoxicity against african green monkey Vero cells assessed as cell viability at 100 ug/ml by MTT assay; type: toxicity, cell-based; conditions: chlorocebus sabaeus, at 100 µg/mL, read-out: Activity
[13] = Cytotoxicity against african green monkey Vero cells assessed as cell viability at 50 ug/ml by MTT assay; type: toxicity, cell-based; conditions: chlorocebus sabaeus, at 50 µg/mL, read-out: Activity
[14] = Cytotoxicity against african green monkey Vero cells assessed as cell viability at 25 ug/ml by MTT assay; type: toxicity, cell-based; conditions: chlorocebus sabaeus, at 25 µg/mL, read-out: Activity
[15] = Acute toxicity in Albino mouse assessed as mortality at 2000 mg/kg, po after 2 to 4 hrs; type: organism-based; conditions: in vivo, time 2-4 hrs
[16] = Acute toxicity in po dosed Albino mouse assessed as mortality after 14 days; type: organism-based; conditions: in vivo, time 14 day
[17] = Acute toxicity in Albino mouse assessed as change in total leucocyte count at 50 to 2000 mg/kg, po measured after 14 days (reference value: 7400 mm3); type: organism-based; conditions: in vivo, 336 h, dose 50-2000 mg/kg, time 14 day
[18] = Acute toxicity in Albino mouse assessed as change in lymphocytes at 50 to 2000 mg/kg, po measured after 14 days (reference value: 21%); type: organism-based; conditions: in vivo, 336 h, dose 50-2000 mg/kg, time 14 day
[19] = Acute toxicity in Albino mouse assessed as change in monocytes at 50 to 2000 mg/kg, po measured after 14 days (reference value: 1%); type: organism-based; conditions: in vivo, 336 h, dose 50-2000 mg/kg, time 14 day
[20] = Acute toxicity in Albino mouse assessed as change in ESR at 50 to 2000 mg/kg, po measured after 14 days (reference value: 10 millimeter); type: organism-based; conditions: in vivo, 336 h, dose 50-2000 mg/kg, time 14 day
[21] = Acute toxicity in Albino mouse assessed as change in platelet count at 50 to 2000 mg/kg, po measured after 14 days (reference value: 3.24 mm3); type: organism-based; set-up: unit not given here; conditions: in vivo, 336 h, dose 50-2000 mg/kg, time 14 day
[22] = Acute toxicity in Albino mouse assessed as change in RBC count measured per million cells at 50 to 2000 mg/kg, po measured after 14 days (reference value: 9.15 microL); type: organism-based, Erythrocyte; conditions: in vivo, 336 h, dose 50-2000 mg/kg, time 14 day
[23] = Acute toxicity in Albino mouse assessed as change in SGOT count at 50 to 2000 mg/kg, po measured after 14 days (reference value: 42 IU/L); type: organism-based; conditions: in vivo, 336 h, dose 50-2000 mg/kg, time 14 day
[24] = Acute toxicity in Albino mouse assessed as change in SGPT count at 50 to 2000 mg/kg, po measured after 14 days (reference value: 52 IU/L); type: organism-based; conditions: in vivo, 336 h, dose 50-2000 mg/kg, time 14 day
[25] = Acute toxicity in Albino mouse assessed as change in LDH level at 50 to 2000 mg/kg, po measured after 14 days (reference value: 1052 IU/L); type: organism-based; conditions: in vivo, 336 h, dose 50-2000 mg/kg, time 14 day
[26] = system: Mycolicibacterium smegmatis; test: Antibacterial activity against Mycobacterium smegmatis ATCC 14468 assessed as log2 fold change in l-Glutamic acid metabolite level by mass spectrometry analysis; type: functional
[27] = system: Mycolicibacterium smegmatis; test: Antibacterial activity against Mycobacterium smegmatis ATCC 14468 assessed as log2 fold change in beta-alanine metabolite level by mass spectrometry analysis; type: functional
[28] = system: Mycolicibacterium smegmatis; test: Antibacterial activity against Mycobacterium smegmatis ATCC 14468 assessed as log2 fold change in l-tyrosine metabolite level by mass spectrometry analysis; type: functional
[29] = system: Mycolicibacterium smegmatis; test: Antibacterial activity against Mycobacterium smegmatis ATCC 14468 assessed as log2 fold change in (22S)-22-hydroxycampest-4-en-3-one metabolite level by mass spectrometry analysis; type: functional
[30] = Renal toxicity in Albino mouse assessed as change in renal corpuscles at 50 to 2000 mg/kg, po measured after 14 days; type: organism-based; conditions: in vivo, 336 h, dose 50-2000 mg/kg, time 14 day
[31] = Renal toxicity in Albino mouse assessed as change in renal tubules at 50 to 2000 mg/kg, po measured after 14 days; type: organism-based; conditions: in vivo, 336 h, dose 50-2000 mg/kg, time 14 day
[32] = Renal toxicity in Albino mouse assessed as change in Bowman's capsule at 50 to 2000 mg/kg, po measured after 14 days; type: organism-based; conditions: in vivo, 336 h, dose 50-2000 mg/kg, time 14 day
[33] = Renal toxicity in Albino mouse assessed as change in proximal convoluted tubules at 50 to 2000 mg/kg, po measured after 14 days; type: organism-based; conditions: in vivo, 336 h, dose 50-2000 mg/kg, time 14 day
[34] = Renal toxicity in Albino mouse assessed as change in tubular capillaries at 50 to 2000 mg/kg, po measured after 14 days; type: organism-based; conditions: in vivo, 336 h, dose 50-2000 mg/kg, time 14 day
[35] = Hepatotoxicity in Albino mouse assessed as change in portal tracks at 50 to 2000 mg/kg, po measured after 14 days; type: toxicity, organism-based; conditions: in vivo, 336 h, dose 50-2000 mg/kg, time 14 day
[36] = Hepatotoxicity in Albino mouse assessed as change in hepatic artery at 50 to 2000 mg/kg, po measured after 14 days; type: toxicity, organism-based, Liver; conditions: in vivo, 336 h, dose 50-2000 mg/kg, time 14 day
[37] = Hepatotoxicity in Albino mouse assessed as change in bile duct at 50 to 2000 mg/kg, po measured after 14 days; type: toxicity, organism-based, Liver; conditions: in vivo, 336 h, dose 50-2000 mg/kg, time 14 day
[38] = Pulmonary toxicity in Albino mouse assessed as change in squamous pneumocytes at 50 to 2000 mg/kg, po measured after 14 days; type: organism-based; conditions: in vivo, 336 h, dose 50-2000 mg/kg, time 14 day
[39] = Pulmonary toxicity in Albino mouse assessed as appearance of goblet cells at 50 to 2000 mg/kg, po measured after 14 days; type: organism-based; conditions: in vivo, 336 h, dose 50-2000 mg/kg, time 14 day

| Compound | MIC [1] [µM] | Activity [2] [%] | log2FC [3] | log2FC [4] | log2FC [5] | log2FC [6] | log2FC [7] | log2FC [8] | log2FC [9] | log2FC [10] | log2FC [11] | viability at 100 ug/ml [12] [%] | viability at 50 ug/ml [13] [%] | viability at 25 ug/ml [14] [%] | Activity [17] [mm3] | Activity [18] [%] | Activity [19] [%] | Activity [20] [millimeter/hr] | Activity [23] [IU/L] | Activity [24] [IU/L] | other results |
| --- | --- | --- | --- | --- | --- | --- | --- | --- | --- | --- | --- | --- | --- | --- | --- | --- | --- | --- | --- | --- | --- |
| COc1ccc(C2C(Cl)C(=O)N2C2=C(Cl)C(=O)c3ccccc3C2=O)cc1 (stereo not drawn) | 31.1 (≈ 12.5 µg/mL) | 80 | -1.9 | -1.22 | -1.89 | -1.76 | -2.45 | -6.64 | -6.64 | -6.64 | -6.64 | 0.7 | 8.7 | 37.6 | 9600 | 32 | 1 | 15 | 95 | 64 | Activity [15]: Toxic; LD50 at 336 h [16]: 50 mg/kg; Activity [21]: 5.82; Activity [22]: 9.4; Activity [25]: 842 IU/L; log2FC [26]: -1.49; log2FC [27]: -2.47; log2FC [28]: -1.68; log2FC [29]: 2.67; Activity [30]: Non-Toxic; Activity [31]: Non-Toxic; Activity [32]: Non-Toxic; Activity [33]: Non-Toxic; Activity [34]: Non-Toxic; Activity [35]: Non-Toxic; Activity [36]: Non-Toxic; Activity [37]: Non-Toxic; Activity [38]: Non-Toxic; Activity [39]: Non-Toxic |
| O=C1C(Cl)=C(Cl)C(=O)c2ccccc21 [Dichlon] | 13.8 (≈ 3.12 µg/mL) | 80 | -2.08 | -1.92 | -1.92 | -3.36 | -4.39 | -6.64 | -6.64 | -6.64 | -6.64 | 28.7 | 36.1 | 67.1 | 10400 | 53 | 1 | 20 | 29 | 17 | Activity [25]: 1030 IU/L; log2FC [26]: -1.59; log2FC [27]: -1; log2FC [28]: -1.18; log2FC [29]: -2.01; Activity [30]: Non-Toxic; Activity [31]: Non-Toxic; Activity [32]: Non-Toxic; Activity [33]: Non-Toxic; Activity [34]: Non-Toxic; Activity [35]: Non-Toxic; Activity [36]: Non-Toxic; Activity [37]: Non-Toxic; Activity [38]: Non-Toxic; Activity [39]: Non-Toxic |
| CN(C)c1ccc(C2C(Cl)C(=O)N2C2=C(Cl)C(=O)c3ccccc3C2=O)cc1 (stereo not drawn) | 15.1 (≈ 6.25 µg/mL) | 80 | -1.41 | -6.64 | -1.47 | -1.02 | -3.03 | -6.64 | -6.64 | -6.64 | -6.64 | 10.2 | 25.4 | 40.9 | 9300 | 34 | 1 | 16 | 109 | 73 | Activity [15]: Toxic; LD50 at 336 h [16]: 300 mg/kg; Activity [21]: 6.22; Activity [22]: 9.67; Activity [25]: 756 IU/L; log2FC [26]: -0.85; log2FC [27]: -1.29; log2FC [28]: -1.13; log2FC [29]: 3.41; Activity [30]: Non-Toxic; Activity [31]: Non-Toxic; Activity [32]: Non-Toxic; Activity [33]: Non-Toxic; Activity [34]: Non-Toxic; Activity [35]: Non-Toxic; Activity [36]: Non-Toxic; Activity [37]: Non-Toxic; Activity [38]: Non-Toxic; Activity [39]: Non-Toxic |
